Test results as given in ChEMBL document CHEMBL5316376, “Cyclopentathiophene Carboxamide Derivatives as PAFR Antagonists for Treating Ocular Diseases, Allergies, and Inflammation-Related Disorders” (ACS Med Chem Lett, 2023).
pIC50: −log10 of the molar value.

Target: Platelet-activating factor receptor (Homo sapiens, UniProt P25105)
Experiment: Antagonist activity at human PAFR expressed in HEK293 cells assessed as inhibition of PAF C-16 ligand induced receptor activation preincubated for 90 mins followed by PAF ligand addition and measured after 60 mins by HTRF IP1 assay
Format: functional, cell-based

Chain of Platelet-activating factor receptor (P25105 whole entry): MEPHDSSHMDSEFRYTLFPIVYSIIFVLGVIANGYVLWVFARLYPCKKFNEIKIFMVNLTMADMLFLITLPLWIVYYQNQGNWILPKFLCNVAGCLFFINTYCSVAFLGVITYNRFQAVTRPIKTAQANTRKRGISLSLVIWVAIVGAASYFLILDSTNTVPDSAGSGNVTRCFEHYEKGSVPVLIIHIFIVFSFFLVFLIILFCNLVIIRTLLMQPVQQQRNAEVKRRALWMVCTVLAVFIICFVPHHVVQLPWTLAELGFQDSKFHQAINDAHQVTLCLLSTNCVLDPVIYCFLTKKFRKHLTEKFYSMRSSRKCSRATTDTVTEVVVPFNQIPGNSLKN

Structure (SMILES) | pIC50
Cc1nnc2n1-c1sc3c(c1[C@@H](c1ccccc1Cl)NC2)C[C@@H](C(=O)NC1CCC(F)(F)CC1)C3 | 8.89
Cc1nnc2n1-c1sc3c(c1[C@H](c1ccccc1Cl)NC2)C[C@@H](C(=O)NCc1ccccc1)C3 | 8.96
Cc1nnc2n1-c1sc3c(c1[C@@H](c1ccccc1Cl)NC2)C[C@@H](C(=O)NC1(c2ccc(Cl)cn2)CC1)C3 | 8.89
Cc1nnc2n1-c1sc3c(c1[C@@H](c1ccccc1Cl)NC2)C[C@@H](C(=O)NCc1ccc(C(F)(F)F)cc1)C3 | 9.40
